Converted amounts (≈) assume the structure as drawn. Like-named read-outs stand apart in the source and are kept apart here.
How the values were obtained:
[1] = test system: K. pneumoniae (ATCC 13883); assay: MIC, standard reference strain; conditions: for MIC: Klebsiella pneumoniae, ATCC13883, read-out: Minimum Inhibitory Concentrations (MIC); for Minimum Inhibitory Concentrations (MIC): Table 2 entry 6, K. pneumoniae (ATCC 13883)
Source text: (§1) E. coli (pSF815) and E. coli (pTZ19U-3) are laboratory resistant strains using E. coli (TG1) as the host.

[2] = test system: Klebsiella pneumoniae (ATCC 700603); assay: microbe, parasite or virus in culture; conditions: ATCC700603, read-out: Minimum Inhibitory Concentrations (MIC)
Source text: as §1

[3] = test system: Staphylococcus aureus (ATCC 33591) (MRSA); assay: MIC, methicillin-resistant S. aureus; conditions: for MIC: Staphylococcus aureus, ATCC33591|MRSA, read-out: Minimum Inhibitory Concentrations (MIC); for Minimum Inhibitory Concentrations (MIC): Table 2 entry 7, Staphylococcus aureus (ATCC 33591) (MRSA)
Source text: as §1

S. aureus (ATCC 25923) = assay: MIC, standard reference strain; conditions: for MIC: Staphylococcus aureus, ATCC25923, read-out: Minimum Inhibitory Concentrations (MIC); for Minimum Inhibitory Concentrations (MIC): Table 2 entry 8, S. aureus (ATCC 25923)
E. coli (TG1) = assay: MIC, standard dilution and diffusion assay, aminoglycoside susceptible strain; conditions: for MIC: Escherichia coli; for Minimum Inhibitory Concentrations (MIC): Table 2 entry 2, E. coli (TG1) aminoglycoside susceptible strain
Procedure: (§2) After the synthesis was completed, both representative aminoglycosides were assayed in standard dilution and diffusion assay against aminoglycoside susceptible and resistant strains of Escherichia coli using amikacin, kanamycin, ribostamycin, and butirosin as the controls. One resistant strain is equipped with the pTZ19-3 plasmid encoded for APH(3′)-I, which renders resistance to kanamycin, neomycin, lividomycin, paromomycin, and ribostamycin. The other resistant strain is equipped with the pSF815 plasmid encoded for AAC(6′) and APH(2″), which produces a bifunctional enzyme that catalyzes acetylation of amino group at C-6′ and phosphorylation of hydroxyl group at C-2″ position. This bifunctional enzyme enables bacteria to acquire resistance against gentamycin, amikacin, tobramycin, netilmicin, and kanamycin.
as §1

E. coli (TG1) (pTZ19U-3) [4] = assay: microbe, parasite or virus in culture; conditions: Escherichia coli
Procedure: as §2, §1

E. coli (TG1) (pSF815) [5] = assay: microbe, parasite or virus in culture; conditions: Escherichia coli
Procedure: as §2, §1

[6] = test system: Escherichia coli (ATCC 25922); assay: MIC, standard reference strain; conditions: for MIC: Escherichia coli, ATCC25922, read-out: Minimum Inhibitory Concentrations (MIC); for Minimum Inhibitory Concentrations (MIC): Table 2 entry 1, Escherichia coli (ATCC 25922)
Source text: as §1

[7] = test system: Pseudomonas aeruginosa (ATCC 27853); assay: microbe, parasite or virus in culture; conditions: ATCC27853, read-out: Minimum Inhibitory Concentrations (MIC)
Source text: as §1

[8] = test system: Pseudomonas aeruginosa (ATCC 27853); conditions: for Minimum Inhibitory Concentrations (MIC): Table 2 entry 9, Pseudomonas aeruginosa (ATCC 27853)
Source text: as §1

E. coli (TG1) (pTZ19U-3) [9] = conditions: for Minimum Inhibitory Concentration: Table 1, E. coli (TG1) (pTZ19U-3), plasmid encoded for APH(3′)-I; for Minimum Inhibitory Concentrations (MIC): Table 2 entry 4, E. coli (TG1) pTZ19U-3 plasmid encoded for APH(3′)-I
Procedure: as §2, §1

[10] = test system: Klebsiella pneumoniae (ATCC 700603); conditions: Table 2 entry 5
Source text: as §1

E. coli (TG1) (pSF815) [11] = conditions: for Minimum Inhibitory Concentration: Table 1, E. coli (TG1) (pSF815), plasmid encoded for AAC6′/APH2″; for Minimum Inhibitory Concentrations (MIC): Table 2 entry 3, E. coli (TG1) pSF815 plasmid encoded for AAC(6′)/APH(2″)
Procedure: as §2, §1

[12] = read-out: Minimum Inhibitory Concentration
[13] = read-out: Minimum Inhibitory Concentrations (MIC)

Row | Compound | MIC [1] | MIC [2] | MIC (E. coli (TG1); [12]) | MIC (E. coli (TG1); [13]) | MIC (E. coli (TG1) (pTZ19U-3) [4]; [12]) | MIC (E. coli (TG1) (pTZ19U-3) [4]; [13]) | MIC (E. coli (TG1) (pSF815) [5]; [12]) | MIC (E. coli (TG1) (pSF815) [5]; [13]) | Minimum Inhibitory Concentrations (MIC) [8] | Minimum Inhibitory Concentrations (MIC) [3] | Minimum Inhibitory Concentrations (MIC) [10] | also measured
1 | NCC[C@H](O)C(=O)N[C@@H]1C[C@H](N)[C@@H](O[C@H]2O[C@H](CN)[C@@H](O)[C@H](O)[C@H]2O)[C@H](O)[C@H]1O[C@H]1O[C@H](CO)[C@@H](O)[C@H](N)[C@H]1O [Amikacin, amikacin] | 1 µg/mL (≈ 1.71 µM) | 0.5 to 1 µg/mL (≈ 0.854 to 1.71 µM) | 1 µg/mL (≈ 1.71 µM) | 1 µg/mL (≈ 1.71 µM) | 0.5 µg/mL (≈ 0.854 µM) | 0.5 µg/mL (≈ 0.854 µM) | 1 µg/mL (≈ 1.71 µM) | 1 µg/mL (≈ 1.71 µM) | – | – | – | MIC [3]: 16 µg/mL (≈ 27.3 µM); MIC (S. aureus (ATCC 25923)): 1 µg/mL (≈ 1.71 µM); MIC [6]: 1 µg/mL (≈ 1.71 µM); MIC [7]: 0.5 to 1 µg/mL (≈ 0.854 to 1.71 µM)
2 | CC1O[C@@H](O[C@@H]2C(O)[C@H](NC(=O)[C@@H](O)CCN)CC(N)[C@H]2O[C@H]2OC(CN)[C@@H](O)[C@H](O)C2N)C(O)[C@@H](O)[C@@H]1N (stereo partly shown) [JT005] | 2 µg/mL (≈ 3.52 µM) | 1 to 2 µg/mL (≈ 1.76 to 3.52 µM) | 4 µg/mL (≈ 7.03 µM) | 4 µg/mL (≈ 7.03 µM) | 4 µg/mL (≈ 7.03 µM) | 4 µg/mL (≈ 7.03 µM) | 4 µg/mL (≈ 7.03 µM) | 4 µg/mL (≈ 7.03 µM) | Inactive | Inactive | – | –
3 | CC1O[C@@H](O[C@H]2C(O[C@H]3OC(CN)[C@@H](O)[C@H](O)C3N)C(N)C[C@@H](NC(=O)[C@@H](O)CCN)C2OCCN)C(O)[C@@H](O)[C@@H]1N (stereo partly shown) [JT050] | – | – | 8 µg/mL (≈ 13.1 µM) | – | 4 µg/mL (≈ 6.54 µM) | – | 2 µg/mL (≈ 3.27 µM) | – | – | – | – | –
4 | CC1O[C@@H](O[C@H]2C(O[C@H]3OC(CN)CCC3N)C(N)C[C@@H](N)C2O)C(O)[C@@H](O)[C@@H]1N (stereo partly shown) [RR501, 3′,4′-Dideoxy Pyranmycin] | 2 to 4 µg/mL (≈ 4.59 to 9.18 µM) | 2 to 4 µg/mL (≈ 4.59 to 9.18 µM) | 8 µg/mL (≈ 18.4 µM) | 8 µg/mL (≈ 18.4 µM) | 4 µg/mL (≈ 9.18 µM) | 4 µg/mL (≈ 9.18 µM) | 4 µg/mL (≈ 9.18 µM) | 4 µg/mL (≈ 9.18 µM) | Inactive | – | – | MIC [3]: 4 µg/mL (≈ 9.18 µM); activity against resistant bacteria equipped with APH(3′), in words (E. coli (TG1) (pTZ19U-3) [9]; text statement summarising Table 1): active
5 | NC[C@H]1O[C@H](O[C@H]2[C@H](O[C@@H]3O[C@H](CO)[C@@H](O)[C@H]3O)[C@@H](O)[C@H](N)C[C@@H]2N)[C@H](N)[C@@H](O)[C@@H]1O [Ribostamycin, ribostamycin] | 4 µg/mL (≈ 8.8 µM) | – | 2 µg/mL (≈ 4.4 µM) | 2 µg/mL (≈ 4.4 µM) | – | 32 µg/mL (≈ 70.4 µM) | 16 µg/mL (≈ 35.2 µM) | 16 µg/mL (≈ 35.2 µM) | Inactive | Inactive | Inactive | MIC (S. aureus (ATCC 25923)): 8 µg/mL (≈ 17.6 µM); Minimum Inhibitory Concentration (E. coli (TG1) (pTZ19U-3) [9]): Inactive; MIC [6]: 8 µg/mL (≈ 17.6 µM)
6 | CC1O[C@@H](O[C@@H]2C(O)C(N)CC(N)C2O[C@H]2OC(CN)[C@@H](O)C(O)C2N)C(O)C(O)[C@@H]1N (stereo partly shown) [TC005, pyranmycin] | – | – | 8 µg/mL (≈ 17.1 µM) | – | 8 µg/mL (≈ 17.1 µM) | – | – | – | – | – | – | Minimum Inhibitory Concentration (E. coli (TG1) (pSF815) [11]): Inactive
7 | CC1O[C@@H](O[C@@H]2C(OCCN)C(N)CC(N)C2O[C@H]2OC(CN)[C@@H](O)C(O)C2N)C(O)C(O)[C@@H]1N (stereo partly shown) [TC050] | – | – | 8 µg/mL (≈ 15.7 µM) | – | 8 µg/mL (≈ 15.7 µM) | – | – | – | – | – | – | Minimum Inhibitory Concentration (E. coli (TG1) (pSF815) [11]): Inactive
8 | C[C@H]1O[C@@H](O[C@@H]2[C@@H](O)[C@H](NC(=O)[C@@H](O)CCN)C[C@H](N)[C@H]2O[C@H]2O[C@H](CN)CC[C@H]2N)[C@H](O)[C@@H](O)[C@@H]1N [pyrankacin] | 2 µg/mL (≈ 3.73 µM) | 1 µg/mL (≈ 1.86 µM) | – | 4 µg/mL (≈ 7.45 µM) | – | 1 µg/mL (≈ 1.86 µM) | – | 1 µg/mL (≈ 1.86 µM) | – | – | – | activity against P. aeruginosa, in words ([8]; text statement summarising Table 2): active; MIC [3]: 8 µg/mL (≈ 14.9 µM); MIC (S. aureus (ATCC 25923)): 2 µg/mL (≈ 3.73 µM); MIC [6]: 4 µg/mL (≈ 7.45 µM); MIC [7]: 2 µg/mL (≈ 3.73 µM)
9 | butirosin | – | – | – | – | – | – | – | – | Inactive | Inactive | 0.5 µg/mL | Minimum Inhibitory Concentrations (MIC) [1]: 0.5 to 1 µg/mL; Minimum Inhibitory Concentrations (MIC) (S. aureus (ATCC 25923)): 2 µg/mL; Minimum Inhibitory Concentration (E. coli (TG1); Table 1, E. coli (TG1)): 0.5 µg/mL; Minimum Inhibitory Concentrations (MIC) (E. coli (TG1)): 1 µg/mL; Minimum Inhibitory Concentration (E. coli (TG1) (pSF815) [11]): 0.5 µg/mL; Minimum Inhibitory Concentrations (MIC) (E. coli (TG1) (pSF815) [11]): 0.25 µg/mL; Minimum Inhibitory Concentration (E. coli (TG1) (pTZ19U-3) [9]): 0.5 µg/mL; Minimum Inhibitory Concentrations (MIC) (E. coli (TG1) (pTZ19U-3) [9]): 0.5 µg/mL; Minimum Inhibitory Concentrations (MIC) [6]: 2 µg/mL
10 | gentamicin | – | – | – | – | – | – | – | – | 0.5 to 1 µg/mL | 4 µg/mL | 8 to 16 µg/mL | Minimum Inhibitory Concentrations (MIC) [1]: 1 µg/mL; Minimum Inhibitory Concentrations (MIC) (S. aureus (ATCC 25923)): 0.5 µg/mL; Minimum Inhibitory Concentrations (MIC) (E. coli (TG1)): 2 µg/mL; Minimum Inhibitory Concentrations (MIC) (E. coli (TG1) (pSF815) [11]): Inactive ^k; Minimum Inhibitory Concentrations (MIC) (E. coli (TG1) (pTZ19U-3) [9]): 1 µg/mL; Minimum Inhibitory Concentrations (MIC) [6]: 2 µg/mL
11 | neomycin | – | – | – | – | – | – | – | – | Inactive | Inactive | Inactive | Minimum Inhibitory Concentrations (MIC) [1]: 2 µg/mL; Minimum Inhibitory Concentrations (MIC) (S. aureus (ATCC 25923)): 1 µg/mL; Minimum Inhibitory Concentrations (MIC) (E. coli (TG1)): 8 µg/mL; Minimum Inhibitory Concentrations (MIC) (E. coli (TG1) (pSF815) [11]): 2 µg/mL; Minimum Inhibitory Concentrations (MIC) (E. coli (TG1) (pTZ19U-3) [9]): Inactive; Minimum Inhibitory Concentrations (MIC) [6]: 4 µg/mL
